# From the NIST ThermoML archive (doi:10.1021/je9003178)
# Numbers after ± are expanded uncertainties.
# Assay: activity coefficient (dimensionless); of the first substance listed, at infinite dilution; xn = mol fraction of the nth substance listed
# Conditions: Liquid, Chromatography, x1 = 0
SMILES,activity coefficient (322.65 K),activity coefficient (332.85 K),activity coefficient (343.15 K),activity coefficient (343.85 K),activity coefficient (352.65 K)
ClC(Cl)Cl [trichloromethane] + CCn1cc[n+](C)c1.N#CN=C=[N-],0.76 ± 0.03,0.81 ± 0.03,0.86 ± 0.03,,
CCC(C)CC [3-methylpentane] + CCCCCC[N+](C)(C)C.O=S(=O)([N-]S(=O)(=O)C(F)(F)F)C(F)(F)F,8.65 ± 0.4,,,8.09 ± 0.37,7.88 ± 0.36
c1ccncc1 [pyridine] + CCn1cc[n+](C)c1.N#CN=C=[N-],0.4 ± 0.03,1.05 ± 0.03,1.07 ± 0.03,,
C=CCCCC [hex-1-ene] + CCCCCC[N+](C)(C)C.O=S(=O)([N-]S(=O)(=O)C(F)(F)F)C(F)(F)F,5.8 ± 0.27,,,5.55 ± 0.25,5.58 ± 0.26
CCCCCCCCCCCC [dodecane] + CCn1cc[n+](C)c1.N#CN=C=[N-],1410 ± 68,1290 ± 62,1180 ± 57,,
"CC(C)CC(C)(C)C [2,2,4-trimethylpentane] + CCCCCC[N+](C)(C)C.O=S(=O)([N-]S(=O)(=O)C(F)(F)F)C(F)(F)F",13.1 ± 0.6,,,12.1 ± 0.56,11.8 ± 0.54
CCO [ethanol] + CCn1cc[n+](C)c1.N#CN=C=[N-],0.78 ± 0.03,0.74 ± 0.03,0.75 ± 0.03,,
CCOCC [diethyl ether] + CCCCCC[N+](C)(C)C.O=S(=O)([N-]S(=O)(=O)C(F)(F)F)C(F)(F)F,1.52 ± 0.059,,,1.91 ± 0.084,1.94 ± 0.086
C#CCCCC [1-hexyne] + CCn1cc[n+](C)c1.N#CN=C=[N-],8.7 ± 0.4,8.47 ± 0.39,8.44 ± 0.39,,
CCCCCCCCC [nonane] + CCn1cc[n+](C)c1.N#CN=C=[N-],498 ± 24,446 ± 21,401 ± 19,,
C1CCOC1 [tetrahydrofuran] + CCCCCC[N+](C)(C)C.O=S(=O)([N-]S(=O)(=O)C(F)(F)F)C(F)(F)F,0.686 ± 0.03,,,0.754 ± 0.029,0.808 ± 0.028
CCC(C)CC [3-methylpentane] + CCn1cc[n+](C)c1.N#CN=C=[N-],93.7 ± 4.4,87.2 ± 4.1,81.4 ± 3.8,,
CO [methanol] + CCCCCC[N+](C)(C)C.O=S(=O)([N-]S(=O)(=O)C(F)(F)F)C(F)(F)F,1.16 ± 0.035,,,0.971 ± 0.025,0.956 ± 0.026
CCC[N+](=O)[O-] [1-nitropropane] + CCCCCC[N+](C)(C)C.O=S(=O)([N-]S(=O)(=O)C(F)(F)F)C(F)(F)F,0.699 ± 0.03,,,0.681 ± 0.03,0.695 ± 0.03
c1ccccc1 [benzene] + CCn1cc[n+](C)c1.N#CN=C=[N-],2.57 ± 0.12,2.56 ± 0.12,2.56 ± 0.12,,
CCCCCCC [heptane] + CCCCCC[N+](C)(C)C.O=S(=O)([N-]S(=O)(=O)C(F)(F)F)C(F)(F)F,13.5 ± 0.62,,,12.3 ± 0.57,11.9 ± 0.55
CCCCCCCCC [nonane] + CCCCCC[N+](C)(C)C.O=S(=O)([N-]S(=O)(=O)C(F)(F)F)C(F)(F)F,28.9 ± 1.3,,,24.6 ± 1.1,23.4 ± 1.1
CCCC=O [butanal] + CCn1cc[n+](C)c1.N#CN=C=[N-],2.23 ± 0.1,2.22 ± 0.1,2.21 ± 0.1,,
CCC(=O)CC [pentan-3-one] + CCCCCC[N+](C)(C)C.O=S(=O)([N-]S(=O)(=O)C(F)(F)F)C(F)(F)F,0.563 ± 0.032,,,0.601 ± 0.031,0.637 ± 0.03
"C1COCCO1 [1,4-dioxane] + CCn1cc[n+](C)c1.N#CN=C=[N-]",0.89 ± 0.03,1.24 ± 0.04,1.25 ± 0.04,,
CCC(=O)CC [pentan-3-one] + CCn1cc[n+](C)c1.N#CN=C=[N-],2.81 ± 0.13,2.84 ± 0.13,2.84 ± 0.13,,
